Where two headings read alike, the source gives them in different places.
How the values were obtained:
human Itk kinase = molecular target: T1, human Itk kinase (Homo sapiens, UniProt Q08881); experiment: Itk inhibition assay: radioactivity-based assay; type: biochemical; conditions: Ki(app)
T1 sequence (Q08881 1-620): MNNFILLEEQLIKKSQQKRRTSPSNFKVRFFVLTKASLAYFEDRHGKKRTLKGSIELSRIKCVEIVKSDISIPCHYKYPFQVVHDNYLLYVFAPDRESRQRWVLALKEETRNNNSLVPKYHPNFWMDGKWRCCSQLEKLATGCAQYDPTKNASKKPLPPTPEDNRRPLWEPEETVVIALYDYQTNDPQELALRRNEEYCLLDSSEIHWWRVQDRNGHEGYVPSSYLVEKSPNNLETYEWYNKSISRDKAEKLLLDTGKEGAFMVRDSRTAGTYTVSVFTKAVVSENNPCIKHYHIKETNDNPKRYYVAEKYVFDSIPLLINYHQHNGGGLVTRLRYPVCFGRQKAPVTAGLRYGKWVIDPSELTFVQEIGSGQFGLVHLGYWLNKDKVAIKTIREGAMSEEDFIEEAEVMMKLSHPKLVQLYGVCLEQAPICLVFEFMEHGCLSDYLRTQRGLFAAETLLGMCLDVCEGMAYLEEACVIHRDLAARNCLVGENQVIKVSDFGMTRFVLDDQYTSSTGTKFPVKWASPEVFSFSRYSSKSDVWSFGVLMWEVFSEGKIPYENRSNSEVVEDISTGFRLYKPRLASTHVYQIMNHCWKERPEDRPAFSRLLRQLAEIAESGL
Description: The compounds of the present invention were evaluated as inhibitors of human Itk kinase using a radioactivity-based assay. These compounds can also be evaluated using a spectrophotometric or alphascreen assay.
Assays were carried out in a mixture of 20 mM MOPS (pH 7.0), 10 mM MgCl2, 0.1% BSA and 1 mM DTT. Final substrate concentrations in the assay were 7.5 μM [γ-^33P]ATP (400 μCi ^33P ATP/μmol ATP, Amersham Pharmacia Biotech/Sigma Chemicals) and 3 μM peptide (SAM68 protein Δ332-443). Assays were carried out at 25° C. in the presence of 50 nM Itk. An assay stock buffer solution was prepared containing all of the reagents listed above, with the exception of ATP and the test compound of interest. 50 μL of the stock solution was placed in a 96 well plate followed by addition of 2 μL of DMSO stock containing serial dilutions of the test compound (typically starting from a final concentration of 50 μM with 2-fold serial dilutions) in duplicate (final DMSO concentration 2%). The plate was pre-incubated for 10 minutes at 25° C. and the reaction initiated by addition of 50 μL [γ-^33P]ATP (final concentration 7.5 μM).
The reaction was stopped after 10 minutes by the addition of 100 μL 0.2M phosphoric acid+0.01% TWEEN 20. A multiscreen phosphocellulose filter 96-well plate (Millipore, Cat no. MAPHNOB50) was pretreated with 100 μL 0.2M phosphoric acid+0.01% TWEEN 20 prior to the addition of 170 μL of the stopped assay mixture. The plate was washed with 4×200 μL 0.2M phosphoric acid+0.01% TWEEN 20. After drying, 30 μL Optiphase ‘SuperMix’ liquid scintillation cocktail (Perkin Elmer) was added to the well prior to scintillation counting (1450 Microbeta Liquid Scintillation Counter, Wallac).
Ki(app) data were calculated from non-linear regression analysis of the initial rate data using the Prism software package (GraphPad Prism version 3.0cx for Macintosh, GraphPad Software, San Diego Calif., USA).

FLT-3 = molecular target: T2, FLT-3 (Homo sapiens, UniProt P36888); experiment: FLT-3 inhibition assay, radiometric filter-binding; type: biochemical
T2 sequence (P36888 27-993): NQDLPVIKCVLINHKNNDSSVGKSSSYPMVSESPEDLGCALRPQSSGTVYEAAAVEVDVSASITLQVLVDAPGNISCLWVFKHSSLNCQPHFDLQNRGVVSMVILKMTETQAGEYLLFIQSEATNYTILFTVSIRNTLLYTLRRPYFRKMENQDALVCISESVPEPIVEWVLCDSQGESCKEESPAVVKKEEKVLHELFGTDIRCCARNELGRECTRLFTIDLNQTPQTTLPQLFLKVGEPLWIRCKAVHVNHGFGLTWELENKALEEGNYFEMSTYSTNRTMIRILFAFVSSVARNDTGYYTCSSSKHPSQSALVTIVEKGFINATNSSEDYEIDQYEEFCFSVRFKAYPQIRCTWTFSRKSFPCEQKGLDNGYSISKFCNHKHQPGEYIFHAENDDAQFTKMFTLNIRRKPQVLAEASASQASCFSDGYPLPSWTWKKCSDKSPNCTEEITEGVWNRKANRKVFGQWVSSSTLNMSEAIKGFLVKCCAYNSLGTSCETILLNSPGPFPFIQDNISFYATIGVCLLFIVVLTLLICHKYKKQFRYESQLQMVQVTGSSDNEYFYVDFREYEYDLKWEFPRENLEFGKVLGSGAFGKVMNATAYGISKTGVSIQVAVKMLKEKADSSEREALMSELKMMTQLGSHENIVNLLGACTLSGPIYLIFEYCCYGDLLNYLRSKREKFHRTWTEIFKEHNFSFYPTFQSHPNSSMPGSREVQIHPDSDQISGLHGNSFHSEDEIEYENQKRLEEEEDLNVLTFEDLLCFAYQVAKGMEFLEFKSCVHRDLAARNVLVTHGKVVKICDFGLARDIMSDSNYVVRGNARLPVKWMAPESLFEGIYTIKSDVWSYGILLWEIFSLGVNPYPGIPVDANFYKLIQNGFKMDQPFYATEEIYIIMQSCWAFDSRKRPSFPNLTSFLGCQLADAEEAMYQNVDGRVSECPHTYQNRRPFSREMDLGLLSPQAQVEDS

SMILES	Ki (human Itk kinase) [nM]	Ki (FLT-3) [nM]	Ki (FLT-3; read-out: FLT-3 Ki value) [nM]
Cc1cnc(Nc2cc(N3CC(N(C)C)C3)nc(Sc3ccc(NC(=O)C4CC4)cc3)n2)s1 [Compound 1]	100 to 1000	50 to 150	–
Cc1cnc(Nc2cc(N3CC(N)C3)nc(Sc3ccc(NC(=O)C4CC4)cc3)n2)s1 [Compound 2]	100 to 1000	≤ 50	–
Cc1cnc(Nc2cc(N3CC(O)C3)nc(Sc3ccc(NC(=O)C4CC4)cc3)n2)s1 [Compound 3]	100 to 1000	≤ 50	–
Cc1cnc(Nc2cc(N3CCC3)nc(Sc3ccc(NC(=O)C4CC4)cc3)n2)s1 [Compound 4]	100 to 1000	50 to 150	–
CC1=NN=C(Nc2cc(N3CCC3)nc(Sc3ccc(NC(=O)c4ccccc4Cl)cc3)n2)C1 [Compound 5]	100 to 1000	–	50 to 150
CC1=NN=C(Nc2cc(N3CCC3)nc(Sc3ccc(NC(=O)C4CCCN4C)cc3)n2)C1 (centres unmarked) [Compound 6]	100 to 1000	150 to 1000	–
Cc1cc(Nc2cc(N3CCC3)nc(Sc3ccc(NC(=O)c4c(F)cccc4N4CCC4)cc3)n2)n[nH]1 [Compound 8]	100 to 1000	50 to 150	–
Cc1cc(Nc2cc(N3CCC3)nc(Sc3ccc(N(C)C(=O)c4ccccc4F)cc3)n2)n[nH]1 [Compound 10]	1000 to 2000	50 to 150	–
COC1CN(c2cc(Nc3cc(C)[nH]n3)nc(Sc3ccc(NC(=O)c4ccccc4Cl)cc3)n2)C1 [Compound 12]	≤ 100	50 to 150	–
CCC(=O)Nc1ccc(Sc2nc(Nc3cc(C)[nH]n3)cc(N3CCC3)n2)cc1 [Compound 14]	100 to 1000	–	50 to 150
CCC(=O)Nc1ccc(Sc2nc(Nc3cc(C)[nH]n3)cc(N3CC(O)C3)n2)cc1 [Compound 15]	100 to 1000	50 to 150	–
Cc1cc(Nc2cc(N3CC(C#N)C3)nc(Sc3ccc(NC(=O)c4ccccc4Cl)cc3)n2)n[nH]1 [Compound 16]	≤ 100	50 to 150	–
Cc1cc(Nc2cc(N3CCC3)nc(Sc3ccc(NC(=O)C4CC4)cc3)n2)n[nH]1 [Compound 17]	100 to 1000	–	50 to 150
CCNC(=O)c1ccc(Sc2nc(Nc3cc(C)[nH]n3)cc(N3CCC3)n2)cc1 [Compound 20]	100 to 1000	50 to 150	–
Cc1cc(Nc2cc(N3CCC3)nc(Sc3ccc4ccccc4c3)n2)n[nH]1 [Compound 25]	1000 to 2000	≤ 50	–
Cc1cc(Nc2cc(N3CCC3)nc(Sc3ccc(NC(=O)OC(C)(C)C)cc3)n2)n[nH]1 [Compound 26]	1000 to 2000	50 to 150	–
Cc1ccc(S(=O)(=O)Nc2ccc(Sc3nc(Nc4cc(C)[nH]n4)cc(N4CCC4)n3)cc2)cc1 [Compound 27]	1000 to 2000	50 to 150	–
Cc1ccc(C(=O)Nc2ccc(Sc3nc(Nc4cc(C)[nH]n4)cc(N4CCC4)n3)cc2)cc1 [Compound 28]	100 to 1000	150 to 1000	–
Cc1cc(Nc2cc(N3CCC3)nc(Sc3ccc(NC(=O)C4CCCCC4)cc3)n2)n[nH]1 [Compound 30]	100 to 1000	–	150 to 1000
Cc1cc(Nc2cc(N3CCC3)nc(Sc3ccc(NC(=O)Cc4ccccc4)cc3)n2)n[nH]1 [Compound 35]	100 to 1000	50 to 150	–

SMILES	Ki (human Itk kinase) [nM]	Ki (FLT-3) [nM]	Ki (FLT-3; read-out: FLT-3 Ki value) [nM]
Cc1cc(Nc2cc(N3CC(C)C3)nc(Sc3ccc(NC(=O)c4ccccc4Cl)cc3)n2)n[nH]1 [Compound 39]	≤ 100	50 to 150	–
Cc1cc(Nc2cc(N3CCC3)nc(Sc3ccc(NC(=O)CC(F)(F)F)cc3)n2)n[nH]1 [Compound 40]	100 to 1000	50 to 150	–
Cc1cc(Nc2cc(N3CCC3)nc(Sc3ccc(NC(=O)c4ccc(F)cc4F)cc3)n2)n[nH]1 [Compound 44]	100 to 1000	150 to 1000	–
Cc1cc(Nc2cc(N3CCC3)nc(Sc3cccc(NC(=O)c4ccccc4Cl)c3)n2)[nH]n1 [Compound 49]	1000 to 2000	150 to 1000	–
CC1=NN=C(Nc2cc(N3CCC3)nc(Sc3ccc(NC(=O)c4ccccc4)cc3)n2)C1 [Compound 52]	100 to 1000	–	150 to 1000
Cc1cc(Nc2cc(N3CCC3)nc(Sc3ccc(NC(=O)c4ccc(Cl)cc4)cc3)n2)n[nH]1 [Compound 54]	100 to 1000	150 to 1000	–
CC1=NN=C(Nc2cc(N3CCC3)nc(Sc3ccc(NC(=O)c4cccc(C(F)(F)F)c4F)cc3)n2)C1 [Compound 55]	100 to 1000	150 to 1000	–
Cc1cc(Nc2cc(N3CCC3)nc(Sc3ccc(NC(=O)Cc4cccc(Cl)c4)cc3)n2)[nH]n1 [Compound 58]	100 to 1000	–	150 to 1000
Cc1cc(Nc2cc(N3CC(F)C3)nc(Sc3ccc(NC(=O)c4ccccc4Cl)cc3)n2)[nH]n1 [Compound 60]	≤ 100	–	50 to 150
CC1=NN=C(Nc2cc(N3CCC3)nc(Sc3ccc(NC(=O)c4cccc(Cl)c4F)cc3)n2)C1 [Compound 61]	≤ 100	150 to 1000	–
Cc1cc(Nc2cc(N3CC(OC(C)(C)C)C3)nc(Sc3ccc(NC(=O)c4ccccc4Cl)cc3)n2)[nH]n1 [Compound 66]	100 to 1000	150 to 1000	–
CCC(=O)Nc1ccc(Sc2nc(Nc3cc(C)n[nH]3)cc(N3CC(C)(O)C3)n2)cc1 [Compound 71]	100 to 1000	–	50 to 150
CCC(=O)Nc1ccc(Sc2nc(Nc3cc(C4CC4)n[nH]3)cc(N3CC(C)(O)C3)n2)cc1 [Compound 76]	≤ 100	≤ 50	–
CCC(=O)Nc1ccc(Sc2nc(C#CC(C)(C)N3CCC3)cc(Nc3cc(C)n[nH]3)n2)cc1 [Compound 77]	100 to 1000	150 to 1000	–
CCC(=O)Nc1ccc(Sc2nc(Nc3cc(C)n[nH]3)cc(N3CC(C)(C#N)C3)n2)cc1 [Compound 79]	100 to 1000	–	≤ 50
CCC(=O)Nc1ccc(Sc2nc(Nc3cc(C)n[nH]3)cc(N3CC(C)(NC(C)(C)C)C3)n2)cc1 [Compound 80]	100 to 1000	–	50 to 150
CCC(=O)Nc1ccc(Sc2nc(Nc3cc(C)n[nH]3)cc(N3CC(O)(C(C)(C)C)C3)n2)cc1 [Compound 81]	≤ 100	–	≤ 50
Cc1cc(Nc2cc(N3CCC3)nc(Sc3ccc(NC(=O)c4ccc(Cl)cc4Cl)cc3)n2)n[nH]1 [Compound 162]	100 to 1000	150 to 1000	–
Cc1cc(Nc2cc(N3CCC3)nc(Sc3ccc(NC(=O)c4nccn4C)cc3)n2)n[nH]1 [Compound 166]	1000 to 2000	150 to 1000	–
Cc1cc(Nc2cc(N3CCC3)nc(Sc3ccc(NC(=O)c4ocnc4C)cc3)n2)n[nH]1 [Compound 167]	1000 to 2000	150 to 1000	–

Source: US8637511B2, “Aminopyrimidines useful as kinase inhibitors” (Vertex Pharmaceuticals Incorporated, priority 2005, dated 2014)
